In paper PMC11363325, “A Novel Prodrug Strategy Based on Reversibly Degradable Guanidine Imides for High Oral Bioavailability and Prolonged Pharmacokinetics of Broad-Spectrum Anti-influenza Agents” (ACS Central Science, 2024):
Counter-ions that a name gives are not always drawn.

Columns and labels:
[1] = tested on: rgPR8(H275Y), A/Puerto Rico/8/1934 with the H275Y mutation in NA
[2] = tested on: A/Korea/2785/2009 (H1N1) with the H275Y mutation in NA (KR2785)
[3] = tested on: rgA/Korea/09/2009Δ53–60 with the H275Y mutation in NA (rgKR09)
[4] = tested on: rgA/Korea/09/2009Δ53–60(H275Y), A/H1N1(H275Y); set-up: species or system BALB/c mice; details: mouse, in vivo, po, 10 mg/kg

SMILES | EC50 [1] [µM] | EC50 [2] [µM] | EC50 [3] [µM] | resistance factor (RF), ratio of EC50 against rgPR8(H275Y) to wild-type rgPR8 [1] | survival rate [4]
NC12CC3CC(CC(C3)C1)C2 [AMT, Amantadine, reference compound] | > 100 | > 100 | > 100 | – | –
CCC(CC)O[C@@H]1C=C(C(=O)O)C[C@H](NC(=N)N)[C@H]1NC(C)=O [GOC, guanidino oseltamivir carboxylate, reference compound] | 0.09 ± 0.01 | 0.78 ± 0.01 | 0.11 ± 0.01 | 18.0 | –
CCC(CC)O[C@@H]1C=C(C(=O)O)C[C@H](NC(=N)N)[C@H]1NC(C)=O [GOC·TFA, guanidino oseltamivir carboxylate] | – | – | – | – | all mice were eventually dead
CCC(CC)O[C@@H]1C=C(C(=O)O)C[C@H](N)[C@H]1NC(C)=O [OSC, oseltamivir carboxylate, reference compound] | 13.7 ± 2.7 | 56.61 ± 0.3 | 25.9 ± 0.65 | 274 | –
CCCCC1CC(=O)N(C(=N[C@H]2CC(C(=O)O)=C[C@@H](OC(CC)CC)[C@@H]2NC(C)=O)N2C(=O)CC(CCCC)C2=O)C1=O (stereo partly drawn) [OSC-GCDI(B)] | 3.41 ± 0.01 | 17.6 ± 2.9 | 12.9 ± 0.65 | – | –
CCC(CC)O[C@@H]1C=C(C(=O)O)C[C@H](N=C(N2C(=O)[C@H]3CCCC[C@H]3C2=O)N2C(=O)[C@H]3CCCC[C@H]3C2=O)[C@H]1NC(C)=O [OSC-GCDI(C)] | 0.49 ± 0.01 | 5.91 ± 0.85 | 3.7 ± 0.5 | – | –
CCC(CC)O[C@@H]1C=C(C(=O)O)C[C@H](N=C(N2C(=O)C3CCC(C)CC3C2=O)N2C(=O)C3CCC(C)CC3C2=O)[C@H]1NC(C)=O (stereo partly drawn) [OSC-GCDI(CM)] | 1.2 ± 0.05 | 14 ± 5.15 | 4.43 ± 0.25 | – | –
CCC(CC)O[C@@H]1C=C(C(=O)O)C[C@H](N=C(N2C(=O)[C@H]3CC=CC[C@H]3C2=O)N2C(=O)[C@H]3CC=CC[C@H]3C2=O)[C@H]1NC(C)=O [OSC-GCDI(Ce)] | 1.9 ± 0.1 | 13.22 ± 0.1 | 5.21 ± 0.02 | – | –
CCC(CC)O[C@@H]1C=C(C(=O)O)C[C@H](N=C(N2C(=O)CC(C)(C)C2=O)N2C(=O)CC(C)(C)C2=O)[C@H]1NC(C)=O [OSC-GCDI(D)] | 1.52 ± 0.2 | 9.25 ± 2.4 | 4.37 ± 1.1 | – | –
CCC(CC)O[C@@H]1C=C(C(=O)O)C[C@H](N=C(N2C(=O)CC(C)C2=O)N2C(=O)CC(C)C2=O)[C@H]1NC(C)=O (stereo partly drawn) [OSC-GCDI(M)] | 0.74 ± 0.05 | 4.61 ± 0.35 | 1.96 ± 0.15 | – | –
CCC(CC)O[C@@H]1C=C(C(=O)O)C[C@H](N=C(N2C(=O)c3ccccc3C2=O)N2C(=O)c3ccccc3C2=O)[C@H]1NC(C)=O [OSC-GCDI(P)] | 0.48 ± 0.01 | 4.61 ± 0.35 | 4.61 ± 0.05 | – | –
CCC(CC)O[C@@H]1C=C(C(=O)O)C[C@H](N=C(N2C(=O)CCC2=O)N2C(=O)CCC2=O)[C@H]1NC(C)=O [OSC-GCDI(S)] | 0.99 ± 0.01 | 8.55 ± 2.15 | 2.2 ± 0.1 | – | –
NC(=O)c1ncn([C@@H]2O[C@H](CO)[C@@H](O)[C@H]2O)n1 [RBV, Ribavirin, reference compound] | 16.4 ± 0.45 | 18.3 ± 1.3 | 15.79 ± 0.15 | – | –
